Results from article PMC3169562, “The Hedgehog Receptor Patched Is Involved in Cholesterol Transport” (PLoS ONE, 2011).

Key:
human Patched (hPtc) [1] = target: T1, human Patched (hPtc) (Homo sapiens, UniProt Q13635); experiment: SPR (Biacore): purified hPtc injected over thiocholesterol covalently coupled to a CM5 chip; Myodulin as negative control; type: binding; parameters: gene PTCH1
T1 sequence (Q13635 1-1447): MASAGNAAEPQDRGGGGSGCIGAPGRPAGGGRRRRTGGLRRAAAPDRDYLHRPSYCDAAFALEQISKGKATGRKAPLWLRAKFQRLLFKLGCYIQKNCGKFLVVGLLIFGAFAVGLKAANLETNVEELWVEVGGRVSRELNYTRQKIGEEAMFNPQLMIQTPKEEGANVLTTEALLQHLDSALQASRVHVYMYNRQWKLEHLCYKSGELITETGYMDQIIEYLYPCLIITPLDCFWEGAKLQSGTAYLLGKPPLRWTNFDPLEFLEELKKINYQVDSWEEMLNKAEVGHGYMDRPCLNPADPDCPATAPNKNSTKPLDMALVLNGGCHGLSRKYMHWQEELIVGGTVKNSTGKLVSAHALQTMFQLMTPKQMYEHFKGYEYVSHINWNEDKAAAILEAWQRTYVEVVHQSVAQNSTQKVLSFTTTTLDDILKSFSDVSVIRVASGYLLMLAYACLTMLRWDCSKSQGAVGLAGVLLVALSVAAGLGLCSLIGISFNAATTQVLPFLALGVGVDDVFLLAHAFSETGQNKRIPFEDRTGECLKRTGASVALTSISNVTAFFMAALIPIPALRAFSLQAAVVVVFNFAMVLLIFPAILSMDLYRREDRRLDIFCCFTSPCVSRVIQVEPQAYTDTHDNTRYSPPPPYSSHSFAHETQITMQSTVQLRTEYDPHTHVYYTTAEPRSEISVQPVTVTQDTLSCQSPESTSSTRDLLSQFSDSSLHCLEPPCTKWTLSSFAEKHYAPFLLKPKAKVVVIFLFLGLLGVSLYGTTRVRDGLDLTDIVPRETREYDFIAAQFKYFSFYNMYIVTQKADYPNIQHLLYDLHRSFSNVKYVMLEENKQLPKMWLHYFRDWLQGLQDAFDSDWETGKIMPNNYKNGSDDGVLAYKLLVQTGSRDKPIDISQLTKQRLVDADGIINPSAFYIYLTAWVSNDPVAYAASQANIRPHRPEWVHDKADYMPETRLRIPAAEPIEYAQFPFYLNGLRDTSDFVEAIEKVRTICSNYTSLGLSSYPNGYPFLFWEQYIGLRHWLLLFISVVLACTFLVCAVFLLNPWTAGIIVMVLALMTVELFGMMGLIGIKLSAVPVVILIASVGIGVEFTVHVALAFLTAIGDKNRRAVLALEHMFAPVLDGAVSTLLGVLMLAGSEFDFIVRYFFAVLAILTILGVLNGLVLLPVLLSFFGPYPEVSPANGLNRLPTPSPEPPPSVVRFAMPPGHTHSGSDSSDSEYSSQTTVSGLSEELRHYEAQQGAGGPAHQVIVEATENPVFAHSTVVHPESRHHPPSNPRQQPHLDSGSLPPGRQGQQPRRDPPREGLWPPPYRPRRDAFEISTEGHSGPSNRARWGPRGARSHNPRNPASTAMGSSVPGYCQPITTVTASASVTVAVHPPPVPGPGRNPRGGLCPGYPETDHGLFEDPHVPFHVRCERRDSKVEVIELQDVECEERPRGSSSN

human Patched (hPtc) [2] = target: T1, human Patched (hPtc); experiment: fluorescent sterol efflux from yeast over-expressing hPtc versus Myodulin or hSmo controls; type: cell-based; parameters: gene PTCH1; hPtc-MAP over-expressed in S. cerevisiae

SMILES | SPR (Biacore): purified hPtc injected over thiocholesterol covalently coupled to (human Patched (hPtc) [1]) | % increase of efflux (human Patched (hPtc) [2])
CC(C)CCC[C@@H](C)[C@H]1CC[C@H]2[C@@H]3CC=C4C[C@@H](O)CC[C@]4(C)[C@H]3CC[C@]12C [cholesterol] | showed a clear binding of hPtc to cholesterol coupled on the fc in comparison with Myo | 
CC1=CC(C)=[N+]2C1=C(CC[C@@H](C)[C@H]1CC[C@H]3[C@@H]4CC=C5C[C@@H](O)CC[C@]5(C)[C@H]4CC[C@]13C)c1c(C)cc(C)n1[B-]2(F)F [BODIPY-cholesterol] |  | ~ 88 % increase of efflux
